Laboratory results reported in patent US5399557A, “Pyrroloazepine compound” (Suntory Limited, priority 1991, dated 1995).
Where a name gives a salt, the structure may show the parent alone.

Experiments:
[1] = test system: α1 receptor; experiment: Anti-α1 action: norepinephrine (NE)-induced tonic contraction of isolated thoracic aorta (helical strip); set-up: species or system Hartley male guinea pig; conditions: contraction induced by 10^-5 M norepinephrine taken as 100%, guinea pig thoracic aorta, 37° C, compounds marked * tested as hydrochloride; for Anti α1 action (% of Control), 10^-7 M: test drug 10^-7 M, 0.1 µM; for Anti α1 action (% of Control), 10^-8 M: test drug 10^-8 M, 0.01 µM
Description: The thoracic aorta of each Hartley male guinea pig (body weight: 300-500 g) was excised. A sample cut in a helical form was suspended under 1 g load in a Magnus cylinder filled with the Tyrode solution of 37° C. which had been saturated with a mixed gas consisting of 95% O2 +5% CO2. Using an isometric transducer ("TB-612J"/NIHON KOHDEN) and a pressure preamplifier ("AP-620G"/NIHON KOHDEN), variations in tension were measured. The measurement results were recorded on a thermal pen-writing recorder ("WT-647G"/NIHON KOHDEN).
Taking the tonic contraction induced by 10^- 5M norepinephrine (NE) as 100%, the percent contractions upon addition of each test drug at 10^-8 and 10^-7 M were determined as anti-α1 action.

[2] = biological target: T1, serotonin (5-HT) receptor (Cavia porcellus, UniProt A0A286Y537); experiment: Anti-serotonin action (anti-5-HT action): 5-HT-induced contraction of isolated superior mesenteric artery (helical strip); set-up: species or system Hartley male guinea pig; conditions: contraction induced by 10^-5 M serotonin taken as 100%, guinea pig superior mesenteric artery, 37° C, compounds marked * tested as hydrochloride; for remaining activity at 1 µM: test drug 10^-6 M, read-out: Anti 5-HT action (% of Control), 10^-6 M; for remaining activity at 0.1 µM: test drug 10^-7 M, read-out: Anti 5-HT action (% of Control), 10^-7 M
T1 construct: 5-HT-induced contraction
T1 sequence (A0A286Y537 1-470): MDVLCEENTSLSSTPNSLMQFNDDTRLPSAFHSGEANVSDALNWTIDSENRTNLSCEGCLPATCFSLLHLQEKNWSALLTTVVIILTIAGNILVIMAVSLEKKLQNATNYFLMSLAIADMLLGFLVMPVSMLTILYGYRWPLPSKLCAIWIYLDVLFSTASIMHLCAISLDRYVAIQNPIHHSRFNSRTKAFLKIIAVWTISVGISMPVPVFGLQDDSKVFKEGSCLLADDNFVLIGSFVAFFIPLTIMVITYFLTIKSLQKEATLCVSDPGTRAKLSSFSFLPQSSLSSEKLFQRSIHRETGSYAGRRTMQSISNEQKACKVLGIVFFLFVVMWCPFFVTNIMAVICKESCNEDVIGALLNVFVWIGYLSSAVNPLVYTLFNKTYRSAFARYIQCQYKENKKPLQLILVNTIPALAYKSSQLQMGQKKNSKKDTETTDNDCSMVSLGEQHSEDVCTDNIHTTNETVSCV
Description: (2) Anti-serotonin action (anti-5-HT action)
A sample cut in a helical form was suspended under 0.3 g load in a Magnus cylinder filled with the Tyrode solution of 37° C. which had been saturated with a mixed gas consisting of 95% O2 +5% CO2. Using an isometric transducer ("UL-10"/SHINKOH K.K.) and a pressure preamplifier ("DSA-605A"/SHINKOH K.K.), variations in tension were measured. The measurement results were recorded on a pen-writing recorder ("VP-6537A"/NATIONAL K.K.). Taking the contraction induced by 10^-5 M serotonin (5-HT) as 100%, the percent contractions induced by 10^-5 M 5-HT in the presence of each test drug at 10^-7 and 10^-6 M were determined as anti-5-HT action.

[3] = test system: platelet aggregation; experiment: Anti-platelet-aggregating action: platelet aggregation induced by ADP + 5-HT in platelet rich plasma; type: cell-based, Japanese white house rabbit; conditions: Oryctolagus cuniculus, test drug 10^-7 M, aggregation induced by 10^-6 M ADP + 10^-5 M 5-HT, 1 mM CaCl2 CaCl2, rabbit PRP, compound marked * (45) tested as hydrochloride, read-out: Inhibitory rate of platelet aggregation (%)
Description: (3) Anti-platelet-aggregating action
Blood was drawn from the auricular artery of Japanese white house rabbit (male, about 3 kg), whereby a platelet rich plasma sample (PRP) was prepared. Platelet aggregating ability was measured using a platelet aggregation measuring apparatus ("PAM-SC"/MEBANIX).
Found under the presence of 1 mM of CaCl2 was a controlling action of the test drug (10^-7 M) against the maximum reaction (100%) of the platelet aggregation induced by 10^-6 M of ADP+10^-5 M of 5-HT.

SMILES	Anti α1 action (% of Control), 10^-7 M [1]	Anti α1 action (% of Control), 10^-8 M [1]	remaining activity at 1 µM [2]	remaining activity at 0.1 µM [2]	inhibition at 0.1 µM [3]
Cn1ccc2c1C(=O)N(CCCN1CCN(c3ccccc3)CC1)CCC2=O [Compound No. 18, 1-Methyl-7-[3-(4-phenylpiperazin-1-yl)propyl]-6,7-dihydropyrrolo[2,3-c]azepine-4,8(1H,5H)-dione]	85.5 % of Control	100.0 % of Control	16.3%	52.8%	–
CCn1ccc2c1C(=O)N(CCCN1CCN(c3ccccc3)CC1)CCC2=O [Compound No. 19, 1-Ethyl-7-[3-(4-phenylpiperazin-1-yl)propyl]-6,7-dihydropyrrolo[2,3-c]azepine-4,8(1H,5H)-dione]	90.1 % of Control	100.0 % of Control	12.4%	60.3%	–
Cn1ccc2c1C(=O)N(CCCN1CCN(c3ccccc3)CC1)CCC2O (centres unmarked) [Compound No. 39, 4-hydroxy-1-methyl-7-[3-(4-phenylpiperazin-1-yl)propyl]-4,5,6,7-tetrahydropyrrolo[2,3-c]azepin-8(1H)-one]	80.5 % of Control	99.3 % of Control	8.7%	34.3%	33%
Cn1ccc2c1C(=O)N(CCCN1CCN(c3ccc(F)cc3)CC1)CCC2O (centres unmarked) [Compound No. 40, 7-[3-[4-(4-Fluorophenyl)piperazin-1-yl]propyl]-4-hydroxy-1-methyl-4,5,6,7-tetrahydropyrrolo[2,3-c]azepin-8(1H)-one]	94.5 % of Control	100.0 % of Control	12.5%	24.2%	–
Cn1ccc2c1C(=O)N(CCCN1CCC(C(=O)c3ccc(F)cc3)CC1)CCC2=NO [Compound No. 43]	37.9 % of Control	73.3 % of Control	8.7%	43.1%	18%
Cn1ccc2c1C(=O)N(CCCN1CCN(c3ccccc3)CC1)CCC2=NO [Compound No. 45, 4-hydroxyimino-1-methyl-7-[3-(4-phenylpiperazin-1-yl)propyl]-4,5,6,7-tetrahydropyrrolo[2,3-c]azepin-8(1H)-one]	23.8 % of Control	79.8 % of Control	–	11.2%	30%
CON=C1CCN(CCCN2CCN(c3ccccc3)CC2)C(=O)c2c1ccn2C [Compound No. 46, 4-Methoxyimino-1-methyl-7-[3-(4-phenylpiperazin-1-yl)propyl]-4,5,6,7-tetrahydropyrrolo[2,3-c]azepin-8(1H)-one]	28.0 % of Control	78.7 % of Control	12.8%	59.5%	–
CCn1ccc2c1C(=O)N(CCCN1CCN(c3ccccc3)CC1)CCC2=NO [Compound No. 47, 1-Ethyl-4-hydroxyimino-7-[3-(4-phenylpiperazin-1-yl)propyl]-4,5,6,7-tetrahydropyrrolo[2,3-c]azepin-8(1H)-one]	81.9 % of Control	100.0 % of Control	–	5.2%	34%
O=C1c2c(ccn2Cc2ccccc2)C(=NO)CCN1CCCN1CCN(c2ccccc2)CC1 [Compound No. 48, 1-Benzyl-4-hydroxyimino-7-[3-(4-phenylpiperazin-1-yl)propyl]-4,5,6,7-tetrahydropyrrolo[2,3-c]azepin-8(1H)-one]	60.5 % of Control	98.9 % of Control	5.1%	52.8%	–
COc1cccc(N2CCN(CCCN3CCC(=NO)c4ccn(C)c4C3=O)CC2)c1 [Compound No. 50, 4-Hydroxyimino-7-[3-[4-(3-methoxyphenyl)piperazin-1-yl]propyl]-1-methyl-4,5,6,7-tetrahydropyrrolo[2,3-c]azepin-8(1H)-one]	38.8 % of Control	57.6 % of Control	18.4%	60%	–
Cn1ccc2c1C(=O)N(CCCN1CCC(c3ccccc3)CC1)CCC2=NO [Compound No. 52, 4-Hydroxyimino-1-methyl-7-[3-(4-phenylpiperidin-1-yl)propyl]-4,5,6,7-tetrahydropyrrolo[2,3-c]azepin-8(1H)-one]	62.6 % of Control	97.2 % of Control	9.9%	39.1%	–
O=C(c1ccc(F)cc1)C1CCN(CCn2c(=O)[nH]c3ccccc3c2=O)CC1 [Ketanserin tartrate, reference compound]	–	–	–	–	20%
